Data published in article PMC11855207, “Synthesis and Evaluation of Aromatic A-Ring 23-Oxavitamin D3 Analogues as Hedgehog Pathway Inhibitors” (International Journal of Molecular Sciences, 2025).

test system: Hh signaling pathway (Gli1 mRNA) in C3H10T1/2 cells; assay: Gli1 mRNA down-regulation (qPCR) in OHC-stimulated C3H10T1/2 cells; assay type: cell-based, mouse; settings: 5 μM with OHCs 5 μM, 24 h, relative Gli1 mRNA levels compared to OHCs (set to 100%)
Method: (§1) The VD3 analogues were initially assessed for their ability to inhibit the Hh signaling pathway by evaluating the effects on endogenous Gli1 mRNA levels at a single concentration (5 μM) co-administration of oxysterols (OHCs; 20(S)-hydroxycholesterol, 22(S)-hydroxycholesterol at 5 μM each) in C3H10T1/2 cells, an Hh-dependent mouse embryonic fibroblast (MEF) cell line. […] VD3 derivatives may retain some VDR agonistic activity, thereby compromising the selectivity of these compounds as Hh inhibitors. The selectivity profile of the analogues for Hh inhibition, compared to typical VDR activation, was assessed by measuring the ability to up-regulate Cyp24a1 mRNA levels in the same cellular system and by evaluating their binding to VDR using a fluorescence polarization-based competition assay (Table 1).
(§2) Mouse embryonic fibroblast cell line (C3H10T1/2, wild-type, VDR^−/−, SuFu^−/−), mouse keratinocyte cell line (ASZ001), and human embryonic kidney cell line (HEK293T) were purchased from China Center for Type Culture Collection (CCTCC; Wuhan, Hubei, China) and cultured under standard protocols. […] Therefore, they can be used to assess the inhibitory strength of the Hh signaling and the selectivity of the VDR signaling. VDR^−/− and SuFu^−/− C3H10T1/2 cells were used to study compounds selectivity for Hh and VDR signaling. If compounds regulate Hh signaling independently of VDR, their ability to down-regulate Gli1 mRNA expression should be abolished in SuFu^−/− C3H10T1/2 cells. […] The loss of Ptch in ASZ001 cells […], so down-regulating Gli1 reflects direct Smo inhibition by the compound. Comparing results from ASZ001 and C3H10T1/2 cells highlights the compound’s inhibition of the Hh signaling pathway.
(§3) RNA isolation in C3H10T1/2 cells was performed in 24-well plates (50,000 cells plated; TRIZOL Reagent); in ASZ001, cells were done in 35 mm dishes (300,000 cells plated; TRIZOL Reagent). cDNA synthesis was performed utilizing the SweScript All-in-One RT SuperMix Kit (Servicebio, Wuhan, China) per the manufacturer’s instructions on a BioRad S1000 Thermal Cycler (Hercules, CA, USA). qPCR (Hh signaling pathway and VDR) analysis of target genes was performed on Step OnePlus (ABI) using the Taqman Gene Expression Assays: mouse ActB (Mm00607939_s1), mouse GLI1 (Mm00494645_ml), mouse PTCH1(Mm00436026_m1), and mouse CYP24A1 (Mm00487244_ml). Relative gene expression levels were computed via the ΔΔCt method. ActinB mRNA expression levels of all samples were normalized to DMSO control ActinB mRNA levels (vehicle; set at 1.00). […] The mRNA expression levels from drug-treated samples were compared to OHCs levels (Gli1, PTCH) and DMSO control (Cyp24A1).

Compound	Gli1 mRNA (%)
CC(C)COC[C@@H](C)[C@H]1CC[C@H]2[C@@H](O)CCC[C@]12C [Compound 2a]	comparable to that of VD3
C[C@H](COCC(C)(C)O)[C@H]1CC[C@H]2[C@@H](O)CCC[C@]12C [Compound 2b]	comparable to that of VD3

same assay, conditions: Mus musculus, C3H 10T1/2, 5 μM with OHCs 5 μM, 24 h, relative Gli1 mRNA levels compared to OHCs (set to 100%)

Compound	mrna remaining at 5 µM
CC(C)COC[C@@H](C)[C@H]1CC[C@H]2[C@@H](O)CCC[C@]12C [Compound 2a]	36.8 ± 3.6%
C[C@H](COCC(C)(C)O)[C@H]1CC[C@H]2[C@@H](O)CCC[C@]12C [Compound 2b]	42.7 ± 3.4%
CC(C)COC[C@@H](C)[C@H]1CC[C@H]2[C@@H](OC(=O)c3ccccc3)CCC[C@]12C [Compound 3a]	56.8 ± 3.5%
CC(C)COC[C@@H](C)[C@H]1CC[C@H]2[C@@H](OC(=O)c3ccc([N+](=O)[O-])cc3)CCC[C@]12C [Compound 3b]	74.2 ± 4.1%
COc1ccc(C(=O)O[C@H]2CCC[C@]3(C)[C@@H]([C@H](C)COCC(C)C)CC[C@@H]23)cc1 [Compound 3c]	89.6 ± 4.3%
COc1cccc(C(=O)O[C@H]2CCC[C@]3(C)[C@@H]([C@H](C)COCC(C)C)CC[C@@H]23)c1 [Compound 3d]	102 ± 8.4%
CC(C)COC[C@@H](C)[C@H]1CC[C@H]2[C@@H](OC(=O)c3ccc(Cl)cc3)CCC[C@]12C [Compound 3e]	23.5 ± 2.7%
CC(C)COC[C@@H](C)[C@H]1CC[C@H]2[C@@H](OC(=O)c3ccc(F)cc3)CCC[C@]12C [Compound 3f]	45.4 ± 3.1%
CC(C)COC[C@@H](C)[C@H]1CC[C@H]2[C@@H](OC(=O)c3cc([N+](=O)[O-])cc([N+](=O)[O-])c3)CCC[C@]12C [Compound 3g]	32.1 ± 2.4%
CC(C)COC[C@@H](C)[C@H]1CC[C@H]2[C@@H](OC(=O)c3cc(N)cc(N)c3)CCC[C@]12C [Compound 3h]	5.6 ± 0.9%

same assay, conditions: Mus musculus, C3H 10T1/2, mean ± SEM

Compound	IC50
CC(C)COC[C@@H](C)[C@H]1CC[C@H]2[C@@H](OC(=O)c3cc(N)cc(N)c3)CCC[C@]12C [Compound 3h]	3.2 ± 0.3 µM

test system: VDR signaling (Cyp24A1 mRNA) in C3H10T1/2 cells; assay: Cyp24A1 mRNA up-regulation (qPCR) in C3H10T1/2 cells; assay type: cell-based, mouse; settings: 5 μM with OHCs 5 μM, 24 h, relative to DMSO (set to 1.0)
Method: as §1, §2, §3

Compound	Cyp24A1 mRNA (fold up-regulation)
CC(C)COC[C@@H](C)[C@H]1CC[C@H]2[C@@H](O)CCC[C@]12C [Compound 2a]	weak
C[C@H](COCC(C)(C)O)[C@H]1CC[C@H]2[C@@H](O)CCC[C@]12C [Compound 2b]	weak

same assay, conditions: Mus musculus, C3H 10T1/2, 5 μM with OHCs 5 μM, 24 h, relative to DMSO (set to 1.0)

Compound	fold induction at 5 µM
CC(C)COC[C@@H](C)[C@H]1CC[C@H]2[C@@H](O)CCC[C@]12C [Compound 2a]	1.6 ± 0.3
C[C@H](COCC(C)(C)O)[C@H]1CC[C@H]2[C@@H](O)CCC[C@]12C [Compound 2b]	76.8 ± 6.3
CC(C)COC[C@@H](C)[C@H]1CC[C@H]2[C@@H](OC(=O)c3ccccc3)CCC[C@]12C [Compound 3a]	35.7 ± 2.6
CC(C)COC[C@@H](C)[C@H]1CC[C@H]2[C@@H](OC(=O)c3ccc([N+](=O)[O-])cc3)CCC[C@]12C [Compound 3b]	24.6 ± 2.1
COc1ccc(C(=O)O[C@H]2CCC[C@]3(C)[C@@H]([C@H](C)COCC(C)C)CC[C@@H]23)cc1 [Compound 3c]	36.7 ± 2.9
COc1cccc(C(=O)O[C@H]2CCC[C@]3(C)[C@@H]([C@H](C)COCC(C)C)CC[C@@H]23)c1 [Compound 3d]	13.5 ± 1.1
CC(C)COC[C@@H](C)[C@H]1CC[C@H]2[C@@H](OC(=O)c3ccc(Cl)cc3)CCC[C@]12C [Compound 3e]	67.8 ± 4.8
CC(C)COC[C@@H](C)[C@H]1CC[C@H]2[C@@H](OC(=O)c3ccc(F)cc3)CCC[C@]12C [Compound 3f]	46.5 ± 3.4
CC(C)COC[C@@H](C)[C@H]1CC[C@H]2[C@@H](OC(=O)c3cc([N+](=O)[O-])cc([N+](=O)[O-])c3)CCC[C@]12C [Compound 3g]	9.8 ± 1.4
CC(C)COC[C@@H](C)[C@H]1CC[C@H]2[C@@H](OC(=O)c3cc(N)cc(N)c3)CCC[C@]12C [Compound 3h]	6.7 ± 0.8

test system: primary Ptch-CKO MB cells; assay: Anti-proliferation (MTS) in primary Ptch-CKO MB cells; assay type: cell-based; settings: Mus musculus, 48 h incubation, mean ± SEM
Method: Ptch-CKO MB cells, derived from a conditional Patched knockout mouse, lack Ptch-like ASZ001 cells. Consequently, the inhibitory effect of the compound on Ptch-CKO MB cells directly reflects its suppression of the canonical Hh signaling pathway. Cell viability was assessed by MTS proliferation assay kit (Promega, Madison, WI, USA) according to the manufacturer’s protocol. Culture conditions and experimental protocols to determine GI50 values in the primary murine Ptch-CKO MB cells were as previously described.

Compound	GI50
CC(C)COC[C@@H](C)[C@H]1CC[C@H]2[C@@H](OC(=O)c3cc(N)cc(N)c3)CCC[C@]12C [Compound 3h]	> 10 µM

molecular target: T1, recombinant VDR (Homo sapiens, UniProt P11473); assay: VDR binding, fluorescence polarization-based competition assay (PolarScreen VDR Competitor Assay Red); settings: compounds evaluated at 100 μM
T1 construct: purchased Thermo Fisher Scientific
T1 sequence (P11473 1-427): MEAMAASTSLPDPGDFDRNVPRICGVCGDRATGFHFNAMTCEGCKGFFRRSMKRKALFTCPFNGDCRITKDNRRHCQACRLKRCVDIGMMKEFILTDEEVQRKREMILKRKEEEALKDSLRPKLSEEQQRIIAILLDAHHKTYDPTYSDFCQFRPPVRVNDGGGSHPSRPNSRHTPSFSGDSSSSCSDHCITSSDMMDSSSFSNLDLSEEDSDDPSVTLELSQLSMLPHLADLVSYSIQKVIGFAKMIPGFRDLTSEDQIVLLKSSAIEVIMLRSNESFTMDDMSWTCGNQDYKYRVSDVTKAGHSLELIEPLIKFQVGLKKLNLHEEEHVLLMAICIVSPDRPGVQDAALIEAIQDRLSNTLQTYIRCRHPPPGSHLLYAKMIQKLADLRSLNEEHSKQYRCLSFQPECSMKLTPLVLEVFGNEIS
Method: as §1
VDR binding assay was performed using a PolarScreen VDR Competitor Assay Red kit (Thermo Fisher Scientific, Carlsbad, CA, USA) per the manufacturer’s instructions. Compounds were evaluated at 100 μM in 2.5% final DMSO in triplicate. Calcitriol is utilized as a positive control for VDR binding.

Compound	VDR Binding
CC(C)COC[C@@H](C)[C@H]1CC[C@H]2[C@@H](O)CCC[C@]12C [Compound 2a]	>100 µM
C[C@H](COCC(C)(C)O)[C@H]1CC[C@H]2[C@@H](O)CCC[C@]12C [Compound 2b]	>100 µM
CC(C)COC[C@@H](C)[C@H]1CC[C@H]2[C@@H](OC(=O)c3ccccc3)CCC[C@]12C [Compound 3a]	>100 µM
CC(C)COC[C@@H](C)[C@H]1CC[C@H]2[C@@H](OC(=O)c3ccc([N+](=O)[O-])cc3)CCC[C@]12C [Compound 3b]	>100 µM
COc1ccc(C(=O)O[C@H]2CCC[C@]3(C)[C@@H]([C@H](C)COCC(C)C)CC[C@@H]23)cc1 [Compound 3c]	>100 µM
COc1cccc(C(=O)O[C@H]2CCC[C@]3(C)[C@@H]([C@H](C)COCC(C)C)CC[C@@H]23)c1 [Compound 3d]	>100 µM
CC(C)COC[C@@H](C)[C@H]1CC[C@H]2[C@@H](OC(=O)c3ccc(Cl)cc3)CCC[C@]12C [Compound 3e]	>100 µM
CC(C)COC[C@@H](C)[C@H]1CC[C@H]2[C@@H](OC(=O)c3ccc(F)cc3)CCC[C@]12C [Compound 3f]	>100 µM
CC(C)COC[C@@H](C)[C@H]1CC[C@H]2[C@@H](OC(=O)c3cc([N+](=O)[O-])cc([N+](=O)[O-])c3)CCC[C@]12C [Compound 3g]	>100 µM
CC(C)COC[C@@H](C)[C@H]1CC[C@H]2[C@@H](OC(=O)c3cc(N)cc(N)c3)CCC[C@]12C [Compound 3h]	>100 µM

test system: Hh signaling pathway (Gli1 mRNA) in ASZ001 cells; assay: Gli1 mRNA down-regulation (qPCR) in ASZ001 cells; assay type: cell-based; settings: Mus musculus; ASZ001 cells; mean ± SEM; read-out: Gli1 IC50
Method: Mouse embryonic fibroblast cell line (C3H10T1/2, wild-type, VDR^−/−, SuFu^−/−), mouse keratinocyte cell line (ASZ001), and human embryonic kidney cell line (HEK293T) were purchased from China Center for Type Culture Collection (CCTCC; Wuhan, Hubei, China) and cultured under standard protocols [16]. […] The loss of Ptch in ASZ001 cells prevents Smo inhibition, so down-regulating Gli1 reflects direct Smo inhibition by the compound.
(§4) RNA isolation in C3H10T1/2 cells was performed in 24-well plates (50,000 cells plated; TRIZOL Reagent); in ASZ001, cells were done in 35 mm dishes (300,000 cells plated; TRIZOL Reagent). cDNA synthesis was performed utilizing the SweScript All-in-One RT SuperMix Kit (Servicebio, Wuhan, China) per the manufacturer’s instructions on a BioRad S1000 Thermal Cycler (Hercules, CA, USA). qPCR (Hh signaling pathway and VDR) analysis of target genes was performed on Step OnePlus (ABI) using the Taqman Gene Expression Assays [18, 29]: mouse ActB (Mm00607939_s1), mouse GLI1 (Mm00494645_ml), mouse PTCH1(Mm00436026_m1), and mouse CYP24A1 (Mm00487244_ml). Relative gene expression levels were computed via the ΔΔCt method. ActinB mRNA expression levels of all samples were normalized to DMSO control ActinB mRNA levels (vehicle; set at 1.00). […] The mRNA expression levels from drug-treated samples were compared to OHCs levels (Gli1, PTCH) and DMSO control (Cyp24A1).

Compound	IC50
CC(C)COC[C@@H](C)[C@H]1CC[C@H]2[C@@H](OC(=O)c3cc(N)cc(N)c3)CCC[C@]12C [Compound 3h]	4.7 ± 0.4 µM

test system: ASZ001 cells; assay: Anti-proliferation (MTS) in ASZ001 cells; assay type: cell-based; settings: Mus musculus, 48 h incubation, mean ± SEM

Compound	GI50
CC(C)COC[C@@H](C)[C@H]1CC[C@H]2[C@@H](OC(=O)c3cc(N)cc(N)c3)CCC[C@]12C [Compound 3h]	> 20 µM

test system: VDR signaling (Cyp24A1 mRNA) in ASZ001 cells; assay: Cyp24A1 mRNA expression (qPCR) in ASZ001 cells; assay type: cell-based; settings: Mus musculus; ASZ001 cells; 5 μM, 24 h; DMSO set to 1.0; read-out: Cyp24A1 mRNA levels relative to DMSO
Method: as §4

Compound	fold induction at 5 µM
CC(C)COC[C@@H](C)[C@H]1CC[C@H]2[C@@H](OC(=O)c3cc(N)cc(N)c3)CCC[C@]12C [Compound 3h]	5.1 ± 0.3

test system: Hh signaling pathway (Ptch mRNA) in C3H10T1/2 cells; assay: Ptch mRNA down-regulation (qPCR) in C3H10T1/2 cells; assay type: cell-based; settings: Mus musculus, C3H 10T1/2; C3H10T1/2 cells; mean ± SEM; read-out: Ptch IC50
Method: as §4

Compound	IC50
CC(C)COC[C@@H](C)[C@H]1CC[C@H]2[C@@H](OC(=O)c3cc(N)cc(N)c3)CCC[C@]12C [Compound 3h]	7.8 ± 0.6 µM
